# Test results: ChEMBL document CHEMBL1914313, “Monosubstituted γ-lactam and conformationally constrained 1,3-diaminopropan-2-ol transition-state isostere inhibitors of β-secretase (BACE)” (Bioorg Med Chem Lett, 2011)
# Assays:
# Beta-secretase 1 [1] = molecular target: T1, Beta-secretase 1 (Homo sapiens, UniProt P56817); assay: Inhibition of BACE1 in human HEK293 cells expressing swedish mutant APP; type: cell-based
# P-glycoprotein = assay: Efflux ratio of permeability across basolateral to apical side over apical to basolateral side in human Caco2 cells expressing p-glycoprotein; type: ADME, cell-based; conditions: Caco-2
# Beta-secretase 1 [2] = molecular target: T1, Beta-secretase 1; assay: Inhibition of BACE1 by HPLC method
# [3] = Selectivity for BACE1 over cathepsin E
# [4] = Selectivity for BACE1 over cathepsin D
# [5] = Selectivity for BACE1 over pepsin
# Beta-secretase 1 [6] = molecular target: T1, Beta-secretase 1; assay: Ratio of IC50 for BACE1 in human HEK293 cells expressing swedish mutant AP to IC50 for BACE1; type: cell-based
# T1 sequence (P56817 whole entry): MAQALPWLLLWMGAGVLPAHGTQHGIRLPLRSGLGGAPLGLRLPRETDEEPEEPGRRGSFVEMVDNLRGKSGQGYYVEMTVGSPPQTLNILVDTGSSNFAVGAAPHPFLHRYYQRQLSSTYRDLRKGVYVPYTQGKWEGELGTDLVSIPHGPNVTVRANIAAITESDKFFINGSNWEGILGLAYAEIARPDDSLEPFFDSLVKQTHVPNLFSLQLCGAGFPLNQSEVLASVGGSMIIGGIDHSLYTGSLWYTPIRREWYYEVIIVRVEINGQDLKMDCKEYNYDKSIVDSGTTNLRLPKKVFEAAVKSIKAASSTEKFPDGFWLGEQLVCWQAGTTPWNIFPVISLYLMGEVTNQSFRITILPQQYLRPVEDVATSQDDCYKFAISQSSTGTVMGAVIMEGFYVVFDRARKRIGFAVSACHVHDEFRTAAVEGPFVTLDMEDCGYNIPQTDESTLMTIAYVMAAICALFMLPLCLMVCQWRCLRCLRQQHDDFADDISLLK
IC50 (Beta-secretase 1 [1]) [nM],IC50 (Beta-secretase 1 [2]) [nM],SMILES,also measured
2,–,CCCO[C@H]1CN[C@@H]([C@@H](O)[C@H](Cc2cc(F)cc(F)c2)NC(=O)[C@H](CCc2ccccc2)N2CC[C@@](CC(C)C)(NC(C)=O)C2=O)C1,efflux ratio (P-glycoprotein): > 12
2.7,2.6,CCCO[C@H]1CN[C@@H]([C@@H](O)[C@H](Cc2cc(F)cc(F)c2)NC(=O)[C@H](CCc2ccccc2)N2CC[C@](NC(C)=O)(C(C)CC)C2=O)C1 (stereo partly specified),Selectivity ratio [3]: 31; Selectivity ratio [4]: 31; Selectivity ratio [5]: 31
270,34,CCC(C)[C@@]1(NC(C)=O)CCN([C@@H](CCc2ccccc2)C(=O)N[C@@H](Cc2cc(F)cc(F)c2)[C@H](O)[C@H]2C[C@@H](N)CN2)C1=O (stereo partly specified),–
220,16,CCC[C@@H](O)[C@H]1CCN([C@@H](CCc2ccccc2)C(=O)N[C@@H](Cc2cc(F)cc(F)c2)[C@H](O)[C@H]2C[C@H](O)CN2)C1=O,–
1400,–,CCCC[C@H]1CCN([C@@H](CCc2ccccc2)C(=O)N[C@@H](Cc2cc(F)cc(F)c2)[C@H](O)[C@H]2Cc3ccccc3CN2)C1=O,Ratio IC50 (Beta-secretase 1 [6]): > 10
720,110,CCCC[C@H]1CCN([C@@H](CCc2ccccc2)C(=O)N[C@@H](Cc2cc(F)cc(F)c2)[C@H](O)[C@H]2C[C@H](O)CN2)C1=O,–
99,21,CCCO[C@H]1CN[C@@H]([C@@H](O)[C@H](Cc2cc(F)cc(F)c2)NC(=O)[C@H](CCc2ccccc2)N2CC[C@H](C(C)C)C2=O)C1,–
390,160,CCCO[C@H]1CN[C@@H]([C@@H](O)[C@H](Cc2cc(F)cc(F)c2)NC(=O)[C@H](C)N2CC[C@H](C(C)C)C2=O)C1,–
650,25,CCCC[C@H]1CCN([C@@H](CCc2ccccc2)C(=O)N[C@@H](Cc2cc(F)cc(F)c2)[C@H](O)[C@H]2C[C@@H](O)CN2)C1=O,–
48,4.7,CCCO[C@H]1CN[C@@H]([C@@H](O)[C@H](Cc2cc(F)cc(F)c2)NC(=O)[C@H](CCc2ccccc2)N2CC[C@H]([C@H](O)CCC)C2=O)C1,–
190,50,CCC(C)[C@@]1(NC(C)=O)CCN([C@@H](CCc2ccccc2)C(=O)N[C@@H](Cc2cc(F)cc(F)c2)[C@H](O)[C@H]2C[C@H](N)CN2)C1=O (stereo partly specified),–
240,20,COc1cccc(CNC[C@@H](O)[C@H](Cc2cc(F)cc(F)c2)NC(=O)[C@H](CCc2ccccc2)N2CC[C@H](CC(C)C)C2=O)c1,–
110,35,CCCO[C@H]1CN[C@@H]([C@@H](O)[C@H](Cc2cc(F)cc(F)c2)NC(=O)[C@H](C)N2CC[C@H](CC(C)C)C2=O)C1,efflux ratio (P-glycoprotein): 32
510,–,CC(C)C[C@H]1CCN([C@@H](CCc2ccccc2)C(=O)N[C@@H](Cc2cc(F)cc(F)c2)[C@H](O)[C@H]2C[C@@H](Oc3ccccn3)CN2)C1=O,–
89,23,CCCO[C@H]1CN[C@@H]([C@@H](O)[C@H](Cc2cc(F)cc(F)c2)NC(=O)[C@H](CCc2ccccc2)N2CC[C@H](COC)C2=O)C1,–
330,–,CC(C)C[C@H]1CCN([C@@H](C)C(=O)N[C@@H](Cc2cc(F)cc(F)c2)[C@H](O)[C@H]2C[C@@H](Oc3ccccn3)CN2)C1=O,–
360,–,CCCC[C@H]1CCN([C@@H](CCc2ccccc2)C(=O)N[C@@H](Cc2cc(F)cc(F)c2)[C@H](O)[C@H]2C[C@@H](Oc3ccccn3)CN2)C1=O,–
68,87,CCCC[C@H]1CCN([C@@H](C)C(=O)N[C@@H](Cc2cc(F)cc(F)c2)[C@H](O)[C@H]2C[C@@H](OCCC)CN2)C1=O,efflux ratio (P-glycoprotein): > 17
69,5.7,CCCO[C@H]1CN[C@@H]([C@@H](O)[C@H](Cc2cc(F)cc(F)c2)NC(=O)[C@H](CCc2ccccc2)N2CC[C@H](CC(C)C)C2=O)C1,–
29,6.5,CCC(C)[C@@]1(NC(C)=O)CCN([C@@H](CCc2ccccc2)C(=O)N[C@@H](Cc2cc(F)cc(F)c2)[C@H](O)[C@H]2C[C@@H](O)CN2)C1=O (stereo partly specified),–

# Further lines, the molecule ahead of its results:
SMILES,IC50 (Beta-secretase 1 [1]) [nM],IC50 (Beta-secretase 1 [2]) [nM],also measured
CCC(C)[C@@]1(NC(C)=O)CCN([C@@H](CCc2ccccc2)C(=O)N[C@@H](Cc2cc(F)cc(F)c2)[C@H](O)[C@H]2C[C@@H](OCc3ccccc3)CN2)C1=O (stereo partly specified),12,–,–
CCC(C)[C@@]1(NC(C)=O)CCN([C@@H](CCc2ccccc2)C(=O)N[C@@H](Cc2cc(F)cc(F)c2)[C@H](O)CNCc2cccc(OC)c2)C1=O (stereo partly specified),–,6.1,–
CCCO[C@H]1CN[C@@H]([C@@H](O)[C@H](Cc2cc(F)cc(F)c2)NC(=O)[C@H](C)N2CC[C@H]([C@H](O)CCC)C2=O)C1,55,70,–
CCCC[C@H]1CCN([C@@H](CCc2ccccc2)C(=O)N[C@@H](Cc2cc(F)cc(F)c2)[C@H](O)CNCc2cccc(OC)c2)C1=O,350,38,–
CCC(C)[C@@]1(NC(C)=O)CCN([C@@H](CCc2ccccc2)C(=O)N[C@@H](Cc2cc(F)cc(F)c2)[C@H](O)[C@H]2Cc3cccc(OC)c3CN2)C1=O (stereo partly specified),20,4.2,–
COc1cccc(CNC[C@@H](O)[C@H](Cc2cc(F)cc(F)c2)NC(=O)[C@H](C)N2CC[C@H](CC(C)C)C2=O)c1,67,89,–
CC(=O)N[C@]1(CC(C)C)CCN([C@@H](CCc2ccccc2)C(=O)N[C@@H](Cc2cc(F)cc(F)c2)[C@H](O)[C@H]2Cc3ccccc3CN2)C1=O,9.5,8.6,–
CCC(C)[C@@]1(NC(C)=O)CCN([C@@H](CCc2ccccc2)C(=O)N[C@@H](Cc2cc(F)cc(F)c2)[C@H](O)[C@H]2C[C@@H](Oc3ccccn3)CN2)C1=O (stereo partly specified),2.1,2.6,–
COc1cccc(CNC[C@@H](O)[C@H](Cc2cc(F)cc(F)c2)NC(=O)[C@H](CCc2ccccc2)N2CC[C@@](CC3CC3)(NC(C)=O)C2=O)c1,10,11,–
COC[C@H]1CCN([C@@H](C)C(=O)N[C@@H](Cc2cc(F)cc(F)c2)[C@H](O)CNCc2cccc(OC)c2)C1=O,400,480,–
CCCC[C@H]1CCN([C@@H](C)C(=O)N[C@@H](Cc2cc(F)cc(F)c2)[C@H](O)[C@H]2C[C@H](O)CN2)C1=O,1400,96,–
CCC(C)[C@@]1(NC(C)=O)CCN([C@@H](CCc2ccccc2)C(=O)N[C@@H](Cc2cc(F)cc(F)c2)[C@H](O)[C@H]2C[C@@H](OCc3ccccn3)CN2)C1=O (stereo partly specified),1.3,1.5,–
CCC(C)[C@@]1(NC(C)=O)CCN([C@@H](CCc2ccccc2)C(=O)N[C@@H](Cc2cc(F)cc(F)c2)[C@H](O)[C@H]2C[C@@H](OCc3cccc(C(F)(F)F)c3)CN2)C1=O (stereo partly specified),71,2.7,–
CCC(C)[C@@]1(NC(C)=O)CCN([C@@H](CCc2ccccc2)C(=O)N[C@@H](Cc2cc(F)cc(F)c2)[C@H](O)[C@H]2C[C@@H](Oc3ccccc3)CN2)C1=O (stereo partly specified),1.4,2.6,–
CCC[C@@H](O)[C@H]1CCN([C@@H](CCc2ccccc2)C(=O)N[C@@H](Cc2cc(F)cc(F)c2)[C@H](O)CNCc2cccc(OC)c2)C1=O,90,5.2,–
COc1cccc(CNC[C@@H](O)[C@H](Cc2cc(F)cc(F)c2)NC(=O)[C@H](C)N2CC[C@H](C(C)C)C2=O)c1,240,170,–
CCC(C)[C@@]1(NC(C)=O)CCN([C@@H](CCc2ccccc2)C(=O)N[C@@H](Cc2cc(F)cc(F)c2)[C@H](O)[C@H]2C[C@@H](Oc3cccnc3)CN2)C1=O (stereo partly specified),2.5,5.9,–
CCC(C)[C@@]1(NC(C)=O)CCN([C@@H](CCc2ccccc2)C(=O)N[C@@H](Cc2cc(F)cc(F)c2)[C@H](O)[C@H]2C[C@@H](OCc3cccc(C#N)c3)CN2)C1=O (stereo partly specified),4.2,3,–
COc1cccc(CNC[C@@H](O)[C@H](Cc2cc(F)cc(F)c2)NC(=O)[C@H](CCc2ccccc2)N2CC[C@H](C(C)C)C2=O)c1,220,75,–
CCCC[C@H]1CCN([C@@H](C)C(=O)N[C@@H](Cc2cc(F)cc(F)c2)[C@H](O)[C@H]2Cc3ccccc3CN2)C1=O,720,–,Ratio IC50 (Beta-secretase 1 [6]): > 10
COC[C@H]1CCN([C@@H](CCc2ccccc2)C(=O)N[C@@H](Cc2cc(F)cc(F)c2)[C@H](O)CNCc2cccc(OC)c2)C1=O,210,32,–
CCC(C)[C@@]1(NC(C)=O)CCN([C@@H](CCc2ccccc2)C(=O)N[C@@H](Cc2cc(F)cc(F)c2)[C@H](O)[C@H]2C[C@@H](OCc3cccnc3)CN2)C1=O (stereo partly specified),2,1.4,–
CCC(C)[C@@]1(NC(C)=O)CCN([C@@H](CCc2ccccc2)C(=O)N[C@@H](Cc2cc(F)cc(F)c2)[C@H](O)[C@H]2C[C@@H](OCc3ccc(F)cc3)CN2)C1=O (stereo partly specified),8.9,10,–
CCC[C@@H](O)[C@H]1CCN([C@@H](C)C(=O)N[C@@H](Cc2cc(F)cc(F)c2)[C@H](O)[C@H]2C[C@H](O)CN2)C1=O,870,40,–
CCC[C@@H](O)[C@H]1CCN([C@@H](C)C(=O)N[C@@H](Cc2cc(F)cc(F)c2)[C@H](O)CNCc2cccc(OC)c2)C1=O,27,68,–
CCC(C)[C@@]1(NC(C)=O)CCN([C@@H](C)C(=O)N[C@@H](Cc2cc(F)cc(F)c2)[C@H](O)[C@H]2C[C@H](O)CN2)C1=O (stereo partly specified),> 660,31,–
COc1cccc(CNC[C@@H](O)[C@H](Cc2cc(F)cc(F)c2)NC(=O)[C@H](C)N2CC[C@@](CC3CC3)(NC(C)=O)C2=O)c1,27,46,–
CCC(C)[C@@]1(NC(C)=O)CCN([C@@H](CCc2ccccc2)C(=O)N[C@@H](Cc2cc(F)cc(F)c2)[C@H](O)[C@H]2Cc3ccccc3CN2)C1=O (stereo partly specified),110,54,–
